Laboratory results as given in patent US12570614B2, “Phenyl amino pyrimidine compounds and uses thereof” (GlaxoSmithKline LLC, priority 2007, dated 2026).
pIC50: −log10 of the molar value. Structures can show the parent of a compound that is named as a salt. Where two headings read alike, the source gives them in different places.

Experiments:
[1] = target: human JAK2 (Homo sapiens (Human), UniProt O60674); assay: JAK2 kinase domain Alphascreen enzyme screening; assay type: biochemical; details: read-out: JAK2_IC50_nM
Description: (§1) For screening purposes, compounds (in 100% DMSO) were warmed at 37° C. for at least 20 minutes before use. A […] stock was initially made in assay buffer, where the final concentration of DMSO was 0.3%. The stocks were then diluted in 384 well Optiplates (Packard) where the final concentration of the compound was 5 μM.
The kinase domain of human JAK2 was amplified from U937 mRNA using the polymerase chain reaction with the following primers: […]
The JAK2 PCR products were cloned into the pDest20 destination vector (Gibco). The JAK2 plasmid was then transformed into competent DH10Bac cells (Gibco), and the recombinant baculovirus was prepared via Sf9 insect cell transfection.
(§2) Baculovirus preparations from each of the JAK family members were infected into one litre of […] (Spodoptera frugiperda) cells (Invitrogen) grown in SF900II serum free medium (Invitrogen) to a cell density of approximately 2×10^6 cells/ml. Cells were infected with virus at a cell culture to virus stock ratio of 20:1. Cells were harvested and lysed 48 hours post infection. The GST-tagged JAK kinase domains were purified by affinity chromatography on a GSH agarose column (Scientifix).
Alphascreen phosphotyrosine acceptor beads followed by streptavidin donor beads at a concentration of 1/100 in stop buffer were added to each well under subdued light and incubated for 2-3 hours. The Alphascreen plates were read on a Packard Fusion Alpha instrument

[2] = target: human JAK3 (Homo sapiens (Human), UniProt P52333); assay: JAK3 kinase domain Alphascreen enzyme screening; assay type: biochemical; details: read-out: JAK3_ IC50_nM
Description: as §1
The kinase domain of human JAK3 was amplified from U937 mRNA using the polymerase chain reaction with the following primers: […]
The JAK3 PCR products were cloned into the pDest20 destination expression vector (Gibco). The JAK3 plasmid was then transformed into competent DH10Bac cells (Gibco), and the recombinant baculovirus was prepared via Sf9 insect cell transfection.
as §2
The compounds were then incubated with substrate in the presence of either […] ATP for 60 or 90 minutes. […] (final concentration 111 μM) or substrate-2 substrate with the sequence biotin-[…] [SEQ ID NO: 16] (final concentration 133 μM). Alphascreen phosphotyrosine acceptor beads followed by streptavidin donor beads at a concentration of 1/100 in stop buffer were added to each well under subdued light and incubated for 2-3 hours. The Alphascreen plates were read on a Packard Fusion Alpha instrument

[3] = tested on: BaF3 TELJAK cells (BafT_J2); assay: Cellular screening, BaF3 TELJAK2 cells (Alamar Blue); assay type: cell-based; details: Mus musculus
Description: (§3) For screening purposes, compounds were diluted in 96 well plates at a concentration of 20 μM. Plates were warmed at 37° C. for 30 minutes before the assay was performed.
A TEL/Jak2 fusion was generated by digestion of the TELPCR product with BamH I/Sal I restriction enzymes, digestion of the JAK2 PCR product with Sal I/Not I restriction enzymes, followed by ligation and subcloning of the ligation product into the mammalian expression Vector pTRE 2 (Clontech), which was prepared by digestion with BamH I—Not I restriction enzymes, to give the TEL/Jak2 fusion plasmid pTELJAK2.
(§4) The growth factor dependent myelomonocytic cell line BaF3 bearing the pTET-off plasmid (Clontech) was transfected with either pTELJAK2 or pTELJAK3, and the transfected cells were selected for growth-factor independent cell growth. The BaF3 wild-type cells were cultured in DMEM containing 10% FCS, 10% WEHI 3B conditioned medium. The BaF3 TELJAK cells ([…]) were cultured in DMEM 10% Tet-System Approved FBS (without WEHI 3B conditioned medium).
(§5) Cell suspensions were prepared by harvesting cells from culture (the cells used in this test were in late log phase growth with high viability.) Cells were diluted in the appropriate growth medium, as described above, to 1.1× final concentration (from 50,000 cell/mL to 200,000 cell/mL, depending on cell line).
(§6) Compounds to be tested were added (10 μL, 10× final concentration) to a flat bottomed 96-well plate. The cellular suspension (90 μL per well) was then added, and the plate incubated for 48-72 hr at 37° C., 5% CO2. Alamar Blue 10 μL per well was added and the plates returned to the incubator for a further 4-6 hours.
(§7) Result are given in table 2 where +++ is <1 μM, ++ is <5 μM and + is <20 μM

[4] = tested on: BaF3 wild-type cells; assay: Cellular screening, BaF3 wild-type cells (Alamar Blue); assay type: cell-based; details: Mus musculus, 48-72 hr incubation, read-out: BAF3wt_IC50_μM
Description: as §3, §4, §5
as §6, with “hours. The plates were then read at 544 nm.” for “hours.”
as §7

[5] = tested on: CTLL2; assay: Cellular screening, CTLL2 cells (Alamar Blue); assay type: cell-based; details: Mus musculus, CTLL-2; 48-72 hr incubation; read-out: CTLL2_IC50_μM
Description: as §3, §5
as §6, with “hours. The plates were then read at 544 nm.” for “hours.”
as §7

[6] = BaF3, 48-72 hr incubation, read-out: BafT_J2_IC50_μM

Sequence of human JAK3 (P52333 822-1111): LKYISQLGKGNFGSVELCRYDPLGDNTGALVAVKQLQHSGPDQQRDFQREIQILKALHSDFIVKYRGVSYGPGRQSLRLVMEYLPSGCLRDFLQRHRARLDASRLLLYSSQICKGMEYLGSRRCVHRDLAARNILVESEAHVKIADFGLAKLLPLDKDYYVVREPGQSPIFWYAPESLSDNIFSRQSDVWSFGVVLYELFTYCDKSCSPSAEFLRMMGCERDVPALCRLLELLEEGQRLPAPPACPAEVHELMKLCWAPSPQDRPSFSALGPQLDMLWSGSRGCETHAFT
Sequence of human JAK2 (O60674 849-1124): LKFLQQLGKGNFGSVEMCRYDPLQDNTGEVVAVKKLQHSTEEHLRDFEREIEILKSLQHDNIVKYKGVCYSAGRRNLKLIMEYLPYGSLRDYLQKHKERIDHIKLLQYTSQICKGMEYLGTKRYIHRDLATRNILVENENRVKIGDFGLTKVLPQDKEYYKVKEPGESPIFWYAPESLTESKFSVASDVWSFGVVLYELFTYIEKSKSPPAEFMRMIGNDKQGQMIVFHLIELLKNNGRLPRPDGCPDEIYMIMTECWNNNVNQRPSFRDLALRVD

| Compound | pIC50 [1] | pIC50 [2] | pIC50 [3, 6] | pIC50 [4] | pIC50 [5] | pIC50 ([3]; BaF3, read-out: BafT_J2_IC50_μM) |
| --- | --- | --- | --- | --- | --- | --- |
| COc1cc(-c2ccnc(Nc3ccc(N4CCOCC4)cc3)n2)ccc1C#N [Compound 16, 2-methoxy-4-(2-(4-morpholinophenyl-amino)pyrimidin-4-yl)benzonitrile] | < 6.00 | < 6.00 | < 4.70 | < 4.70 | < 4.70 | – |
| N#Cc1cc(-c2ccnc(Nc3ccc(N4CCOCC4)cc3)n2)ccc1O [Compound 9, 2-hydroxy-5-(2-(4-morpholinophenyl-amino)pyrimidin-4-yl)benzonitrile] | > 6.30 | > 6.30 | > 5.30 | > 5.30 | > 5.30 | – |
| Cc1cnc(Nc2ccc(N3CCC(CO)CC3)cc2)nc1-c1ccc(C(=O)NCC#N)cc1 [Compound 39, N-(cyanomethyl)-4-(2-(4-(4-(hydroxymethyl)piperidin-1-yl)phenylamino)-5-methylpyrimidin-4-yl)benzamide] | – | > 7.00 | > 6.00 | > 5.30 | > 5.30 | – |
| O=C(NCc1cccnc1)c1ccc(-c2ccnc(Nc3ccc(N4CCOCC4)cc3)n2)cc1 [Compound 18, 4-(2-(4-morpholinophenyl-amino)pyrimidin-4-yl)-N-(pyridin-3-ylmethyl)benzamide] | > 6.30 | > 6.00 | > 5.30 | < 4.70 | > 4.70 | – |
| O=C(NCC1CCCO1)c1ccc(-c2ccnc(Nc3ccc(N4CCOCC4)cc3)n2)cc1 (stereo not shown) [Compound 21, 4-(2-(4-morpholinophenyl-amino)pyrimidin-4-yl)-N-((tetrahydrofuran-2-yl)methyl)benzamide] | > 6.30 | > 6.30 | > 4.70 | > 4.70 | > 4.70 | – |
| N#CCNC(=O)CNC(=O)c1ccc(-c2ccnc(Nc3ccc(N4CCOCC4)cc3)n2)cc1 [Compound 34, N-(2-(cyanomethylamino)-2-oxoethyl)-4-(2-(4-morpholinophenyl-amino)pyrimidin-4-yl)benzamide] | > 7.00 | > 6.30 | > 4.70 | > 5.30 | > 5.30 | – |
| N#CCNC(=O)c1ccc(-c2nc(Nc3ccc(N4CCOCC4)cc3)ncc2F)cc1 [Compound 93, N-(cyanomethyl)-4-(5-fluoro-2-(4-morpholinophenyl-amino)pyrimidin-4-yl)benzamide] | > 7.00 | > 6.30 | – | > 6.00 | > 6.00 | > 6.00 |
| O=C(NCc1ccncc1)c1ccc(-c2ccnc(Nc3ccc(N4CCOCC4)cc3)n2)cc1 [Compound 17, 4-(2-(4-morpholinophenyl-amino)pyrimidin-4-yl)-N-(pyridin-4-ylmethyl)benzamide] | > 6.30 | > 6.00 | > 5.30 | > 4.70 | < 4.70 | – |

Second part, led by results:

| pIC50 [1] | pIC50 [2] | pIC50 [3, 6] | pIC50 [4] | Compound | pIC50 [5] | pIC50 ([3]; BaF3, read-out: BafT_J2_IC50_μM) |
| --- | --- | --- | --- | --- | --- | --- |
| > 7.00 | < 6.00 | > 6.00 | > 5.30 | CS(=O)(=O)N(CC#N)c1ccc(-c2ccnc(Nc3ccc(N4CCOCC4)c(F)c3)n2)cc1 [Compound 81, N-(cyanomethyl)-N-(4-(2-(3-fluoro-4-morpholinophenyl-amino)pyrimidin-4-yl)phenyl)methane-sulfonamide] | > 5.30 | – |
| > 7.00 | > 6.30 | > 6.00 | > 5.30 | N#CCNC(=O)c1ccc(-c2nc(Nc3ccc(N4CCOCC4)cc3)ncc2Cl)cc1 [Compound 53, 4-(5-chloro-2-(4-morpholinophenyl-amino)pyrimidin-4-yl)-N-(cyanomethyl) benzamide] | > 5.30 | – |
| > 7.00 | > 6.00 | > 5.30 | > 4.70 | N#CCNC(=O)c1ccc(-c2ccnc(Nc3ccc(C(=O)N4CCC(N5CCCC5)CC4)cc3)n2)cc1 [Compound 50, N-(cyanomethyl)-4-(2-(4-(4-(pyrrolidin-1-yl)piperidine-1-carbonyl)phenyl-amino)pyrimidin-4-yl)benzamide] | < 4.70 | – |
| > 7.00 | > 6.00 | > 5.30 | > 5.30 | CCCOCc1cccc(Nc2nccc(-c3ccc(C(=O)NCC#N)cc3)n2)c1 [Compound 75, N-(cyanomethyl)-4-(2-(3-(proproxymethyl)phenylamino)pyrimidin-4-yl)benzamide] | > 5.30 | – |
| > 7.00 | > 7.00 | > 6.00 | > 6.00 | N#CCNC(=O)c1ccc(-c2nc(Nc3ccc(N4CCOCC4)cc3)ncc2Br)cc1 [Compound 65, 4-(5-bromo-2-(4-morpholinophenyl-amino)pyrimidin-4-yl)-N-(cyanomethyl) benzamide] | > 6.00 | – |
| > 7.00 | > 6.30 | > 5.30 | > 5.30 | N#CCNC(=O)c1ccc(-c2ccnc(Nc3ccc(N4CCS(=O)(=O)CC4)cc3)n2)cc1 [Compound 89, N-(cyanomethyl)-4-(2-{[4-(1,1-dioxo-1λ^6,4-thiomorpholin-4-yl)phenyl]amino}pyrimidin-4-yl)benzamide] | > 5.30 | – |
| > 7.00 | > 6.00 | > 5.30 | > 5.30 | C#CCN(c1ccc(-c2ccnc(Nc3ccc(N4CCOCC4)cc3)n2)cc1)S(C)(=O)=O [Compound 57, N-(4-(2-(4-morpholinophenyl-amino)pyrimidin-4-yl)phenyl)-N-(prop-2-ynyl)methane-sulfonamide tosylate] | > 5.30 | – |
| > 7.00 | > 7.00 | > 6.00 | > 5.30 | CC(=O)N1CCN(c2ccc(Nc3nccc(-c4ccc(C(=O)NCC#N)cc4)n3)cc2)CC1 [Compound 55, 4-(2-(4-(4-acetylpiperazin-1-yl)phenylamino)pyrimidin-4-yl)-N-(cyanomethyl) benzamide] | > 5.30 | – |
| > 7.00 | > 7.00 | > 6.00 | > 5.30 | Cc1cnc(Nc2ccc(N3CCC(NS(C)(=O)=O)CC3)cc2)nc1-c1ccc(C(=O)NCC#N)cc1 [Compound 56, N-(cyanomethyl)-4-(5-methyl-2-(4-(4-(methylsulfonamido)piperidin-1-yl)phenylamino)pyrimidin-4-yl)benzamide] | > 5.30 | – |
| > 7.00 | > 7.00 | > 6.00 | > 5.30 | Cc1cnc(Nc2ccc(N3CCC(O)CC3)cc2)nc1-c1ccc(C(=O)NCC#N)cc1 [Compound 58, N-(cyanomethyl)-4-(2-(4-(4-hydroxypiperidin-1-yl)phenylamino)-5-methylpyrimidin-4-yl)benzamide] | > 6.00 | – |
| > 7.00 | > 6.30 | > 6.00 | > 6.00 | C=CCOCc1cc(Nc2nccc(-c3ccc(C(=O)NCC#N)cc3)n2)ccc1N1CCOCC1 [Compound 79] | > 5.30 | – |
